Experimental data from publication PMC4161441, “Unravelling the Multiple Functions of the Architecturally Intricate Streptococcus pneumoniae β-galactosidase, BgaA” (PLoS Pathogens, 2014).

Experiments:
CBM71-2 [1] = target: T1, CBM71-2 (Streptococcus pneumoniae, UniProt Q8DQP4); test: UV difference spectroscopy; assay type: binding; settings: 25 °C; too weak to quantify
T1 construct: gene bgaA; pET28-based expression in E. coli; exact borders not in text

CBM71-1 [2] = target: T2, CBM71-1 (Streptococcus pneumoniae, UniProt Q8DQP4); test: UV difference spectroscopy; assay type: binding; settings: 25 °C; too weak to quantify
T2 construct: gene bgaA; pET28-based expression in E. coli; exact borders not in text

CBM71-1 [3] = target: T2, CBM71-1; test: isothermal titration calorimetry; assay type: binding; settings: PBS, 25 °C
CBM71-2 [4] = target: T1, CBM71-2; test: isothermal titration calorimetry; assay type: binding; settings: PBS, 25 °C
[5] = target: T3, BgaA catalytic region (GH2; SpBgaA) (Streptococcus pneumoniae, UniProt A0A0H2UP19); test: isothermal titration calorimetry; assay type: binding
T3 construct: N-terminal catalytic region, domains I-V (GH2 region printed as residues 138-993; SpBgaA146-990 in cell assay); pET28-based expression in E. coli; source strain and exact borders not in main text

[6] = target: T3, BgaA catalytic region (GH2; SpBgaA); test: steady-state kinetics, UV-visible spectrophotometry; apparent Km/Vmax against inhibitor concentration; assay type: biochemical

T1 sequence (Q8DQP4 entry or part of it): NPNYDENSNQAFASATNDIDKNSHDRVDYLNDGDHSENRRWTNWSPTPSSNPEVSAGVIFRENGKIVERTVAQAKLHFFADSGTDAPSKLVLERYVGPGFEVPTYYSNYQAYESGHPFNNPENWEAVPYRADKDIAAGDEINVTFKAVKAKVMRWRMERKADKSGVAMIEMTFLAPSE
T2 sequence (Q8DQP4 entry or part of it): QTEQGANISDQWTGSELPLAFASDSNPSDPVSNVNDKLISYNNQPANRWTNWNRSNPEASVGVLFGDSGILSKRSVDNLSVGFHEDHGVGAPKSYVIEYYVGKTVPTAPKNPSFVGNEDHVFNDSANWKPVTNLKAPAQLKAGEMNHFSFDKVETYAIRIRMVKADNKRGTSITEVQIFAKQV

In the case of `OC[C@H]1OC(O)[C@H](O)[C@@H](O)[C@H]1O` (stereo partly drawn) [D-galactose], the UV difference spectroscopy (CBM71-2 [1]) is reported as “For both CBMs, the binding to galactose was too weak to quantify” and the UV difference spectroscopy (CBM71-1 [2]) is reported as “only D-galactose gave a signature UV difference spectrum consistent with sugar binding”.
With `CC(=O)N[C@H]1C(O)O[C@H](CO)[C@@H](O[C@@H]2O[C@H](CO)[C@H](O)[C@H](O)[C@H]2O)[C@@H]1O` (stereo partly drawn) [LacNAc] the Kd (CBM71-1 [3]) was 251 µM and the Kd (CBM71-2 [4]) was 247 µM.
Compound `OC[C@H]1CNC[C@@H](O)[C@H]1O` [galactoisofagomine] has a Kd [5] of 0.026 µM and a Ki [6] of 0.025 µM.
`OC[C@H]1NC(O)[C@H](O)[C@@H](O)[C@H]1O` (stereo partly drawn) [galactonojirimycin] showed a Ki [6] of 33.9 µM.
With `OC[C@H]1O[C@@H](O[C@H]2[C@H](O)[C@@H](O)C(O)O[C@@H]2CO)[C@H](O)[C@@H](O)[C@H]1O` (stereo partly drawn) [lactose] the Kd (CBM71-1 [3]) was 368 µM and the Kd (CBM71-2 [4]) was 378 µM.
